Data published in patent publication US20090291857A1, “METHODS TO IDENTIFY INHIBITORS OF THE UNFOLDED PROTEIN RESPONSE” (THE BOARD OF TRUSTEES OF THE LELAND STANFORD JUNIOR …, priority 2006, published 2009).

Molecular target: T1, IRE1α (Homo sapiens, UniProt O75460)
T1 construct: endogenous in cells; host or cells: HT1080
Assay: IRE1α expression and kinase function (phospho-IRE1α immunoblot)
Format: cell-based
Method: Cells (2×10^6) were cultured in 10-cm dishes, collected using a cell scraper at 4° C., and lysed by addition of 150 μl cell lysis buffer [50 mM Tris pH 7.4, 150 mM NaCl, 10% glycerol, 0.5% Triton X-100. 0.5% NP-40, 2 mM Na3VO4, 20 mM beta-glycerophosphate, 10 mM NaF, 1 mM DTT, 1 mM PMSF). Lysates were centrifuged for 5 min at 10,000×g, and proteins (˜40 μg) were resolved by SDS-PAGE followed by semi-dry transfer to nitrocellulose membranes. Membranes were blocked in TBS-5% milk supplemented with 0.1% Tween-20. The blots were then probed overnight with relevant antibodies, washed, and incubated for 2 hours with species-specific secondary antibodies conjugated to horseradish peroxidase. After washing in block solution, immunoreactive material was detected by enhanced chemiluminescence (SuperSignal West Dura Extended, Pierce, Inc., Rockville, Ill.).
HT1080 cells were exposed to DMSO vehicle (lane 1), irestatin 9389 (2.5 μM; lane 2) for 16 hours or Tm (5 μg/ml; lane 3) for 8 hours. Following treatments, cells were harvested, lysed, and analyzed by immunoblotting using anti-Grp78 antibody (top) or anti-actin (bottom) as a loading control. […] Cell lysates were analyzed by Western immunoblotting using anti-IRE1α (bottom) or anti-phospho-IRE1α antibodies (top). […] Lysates were analyzed by Western blot using antisera specific for phospho-JNK1 (top) or total JNK1 (bottom). […]

T1 sequence (O75460 19-977): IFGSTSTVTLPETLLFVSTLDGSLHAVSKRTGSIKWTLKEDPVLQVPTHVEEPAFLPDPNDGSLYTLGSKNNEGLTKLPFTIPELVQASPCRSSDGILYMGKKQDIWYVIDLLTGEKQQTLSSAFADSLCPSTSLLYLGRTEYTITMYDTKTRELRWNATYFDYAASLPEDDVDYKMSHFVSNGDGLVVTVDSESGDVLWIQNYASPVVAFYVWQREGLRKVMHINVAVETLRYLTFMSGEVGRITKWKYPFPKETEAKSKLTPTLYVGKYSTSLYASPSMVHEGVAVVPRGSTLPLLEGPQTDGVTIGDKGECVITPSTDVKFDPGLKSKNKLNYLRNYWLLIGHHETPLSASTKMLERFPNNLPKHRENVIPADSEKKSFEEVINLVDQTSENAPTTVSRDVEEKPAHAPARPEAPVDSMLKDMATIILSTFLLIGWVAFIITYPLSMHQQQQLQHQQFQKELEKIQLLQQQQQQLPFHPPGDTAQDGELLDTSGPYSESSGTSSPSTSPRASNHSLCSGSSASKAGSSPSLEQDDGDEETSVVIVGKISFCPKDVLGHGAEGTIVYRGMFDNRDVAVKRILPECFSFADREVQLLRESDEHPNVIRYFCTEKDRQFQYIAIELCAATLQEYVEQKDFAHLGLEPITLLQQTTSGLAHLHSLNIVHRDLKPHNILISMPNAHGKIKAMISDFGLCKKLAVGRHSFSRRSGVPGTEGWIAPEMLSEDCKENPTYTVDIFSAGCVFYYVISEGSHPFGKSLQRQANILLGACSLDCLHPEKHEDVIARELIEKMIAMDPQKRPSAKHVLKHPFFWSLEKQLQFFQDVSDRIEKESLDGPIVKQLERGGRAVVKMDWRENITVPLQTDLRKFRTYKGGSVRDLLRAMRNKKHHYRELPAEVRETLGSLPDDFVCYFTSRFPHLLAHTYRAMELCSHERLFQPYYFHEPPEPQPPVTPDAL

## Cc1csc(NC(=O)CSc2nc3c(c(C(F)(F)F)c2C#N)CCC3)n1 [Compound 9389]
2.5 μM, 16 hours
  total level of IRE1α: no significant changes
16 hours preincubation 2.5 μM, then Tm 5 μg/ml
  levels of phospho-IRE1α after Tm: rapid increase in levels of phospho-IRE1α
